From patent publication US4191698A, “Tricyclopentyltin fluoride” (priority 1977, dated 1980) come the findings set out here.

Holding throughout (format): in vivo
Data set [1] relates to wheat. The data set can be described thus: Phytotoxicity to host plant in wheat leaf rust test (rating 0-2). As to conditions: 300 ppm. Also noted: key: 0: indicates no phytotoxicity; 1: indicates that the degree of phytotoxicity was sufficient to make the plant commercially worthless; 2: indicates that the plant was killed. Here is the method:
(§1) The efficacy of tricyclopentyltin fluoride as a control agent for three different plant fungi (grape downy mildew, apple powdery mildew and wheat leaf rust) was evaluated and compared with the performance of several other tricyclopentyltin compounds. The results of this evaluation are disclosed in the following tables 2, 3 and 4. The phytotoxicity of the various compounds tested was also evaluated at various concentration levels. […] Quantitative ratings for phytotoxicity are given in each of the first three tables. A rating of 0 indicates no phytotoxicity.
(§2) Host plants, (grape, wheat or apple, depending upon the fungus) are sprayed with a water suspension of the test compound and then inoculated with the pathogen. A number of control plants that have not been sprayed are also inoculated. After disease symptoms are well developed on the untreated control plants the test plants are graded for disease control.

Data set [2] has as its system wheat. The data set can be described thus: Phytotoxicity applied to wheat (scale 0-5). Further details: key: 0: no phytotoxicity; 1: very slight injury, the minimum that could be observed; 2: less than 10% of leaf surface injured; 3: 10-50% of leaf surface injured; 4: 50-90% of leaf surface injured; 5: plant killed. On the procedure:
(§3) The phytotoxicity of a number of tricyclopentyltin compounds and triphenyltin hydroxide on grape vines, wheat and barley was evaluated quantitatively using the following scale:
(§4) If the rating was considered to be somewhere between two integers based on observations of other plants, the lower integer followed by "0.5" was employed as the rating.

Data set [3] deals with Grape Downy Mildew (Plasmopara viticola). The data set can be described thus: Grape downy mildew control (Procedure 3).
Excerpt: (§5) PROCEDURE 3--Employed Using Grape Downy Mildew (Plasmopara viticola), Wheat Leaf Rust (Puccinia recondita) and Apple Powdery Mildew (Podosphaera leucotricha)
as §2

Data set [4] relates to Apple Powdery Mildew (Podosphaera leucotricha). In words: Apple powdery mildew control (Procedure 3).
Excerpt: as §5, §2

For data set [5], the system named is Wheat Leaf Rust (Puccinia recondita). The data set can be described thus: Wheat leaf rust control (Procedure 3). The conditions noted are these: 300 ppm.
Excerpt: as §5, §2

For a further data set, the system named is grape. In words: Phytotoxicity to host plant in grape downy mildew test (rating 0-2). Further details: key to Phytotoxicity: 0: indicates no phytotoxicity; 1: indicates that the degree of phytotoxicity was sufficient to make the plant commercially worthless; 2: indicates that the plant was killed. The conditions noted are these: for Phytotoxicity: rating 0-2. Here is the method: as §1, §2

Another data set concerns Grape Vines. The data set can be described thus: Phytotoxicity applied to grape vines (scale 0-5). Also noted: key to Phytotoxicity: 0: no phytotoxicity; 1: very slight injury, the minimum that could be observed; 2: less than 10% of leaf surface injured; 3: 10-50% of leaf surface injured; 4: 50-90% of leaf surface injured; 5: plant killed. The conditions noted are these: for Phytotoxicity: scale 0-5. Here is the method: as §3, §4

The next data set deals with Barley. The data set can be described thus: Phytotoxicity applied to barley (scale 0-5). Also noted: key: 0: no phytotoxicity; 1: very slight injury, the minimum that could be observed; 2: less than 10% of leaf surface injured; 3: 10-50% of leaf surface injured; 4: 50-90% of leaf surface injured; 5: plant killed. On the procedure:
as §3, §4

Turning to `[Cl][Sn]([CH]1CCCC1)([CH]1CCCC1)[CH]1CCCC1` [Tricyclopentyltin chloride], the Phytotoxicity in the data set with wheat [1] is listed as 2; in the data set on wheat [2] (75 ppm), 1; in the data set on wheat [2] (300 ppm), 3 (10-50% of leaf surface injured); in the data set with wheat [2] (1200 ppm) it was 5.
As to `[F][Sn]([CH]1CCCC1)([CH]1CCCC1)[CH]1CCCC1` [Tricyclopentyltin fluoride], the “control rating (comparison in words)” value in data set [3] (75 ppm) was “higher than the two other tricyclopentyltin compounds”. The “activity against representative plant fungi (comparison in words)” value in data set [3] (representative plant fungi of Tables 2-4) is “highest activity against representative plant fungi of all the compounds tested”. Also, the “efficacy (comparison in words)” value in data set [4] (75 ppm) is given as “considerably higher than the other compounds tested”. In addition, the “control of wheat leaf rust (in words)” value in data set [5] is on record as “effectively controlled wheat leaf rust”. In addition, the Phytotoxicity with grape (75 ppm) came out at 0; in the data set with grape (300 ppm) it was 0; in the data set on wheat [1] it was 0; in the data set on Grape Vines (75 ppm), 0; in the data set with Grape Vines (300 ppm), 1.5; in the data set on Grape Vines (1200 ppm), 3.5. The Phytotoxicity in the data set on wheat [2] (75 ppm) is 0; with wheat [2] (300 ppm), 0; in the data set with wheat [2] (1200 ppm) it was 1.5; in the data set on Barley (38 ppm) it was 0; with Barley (150 ppm) it was 1; with Barley (600 ppm) it was 2 (less than 10% of leaf surface injured). The “phytotoxic effects (in words)” value in the data set on grape (300 ppm) is “did not produce any phytotoxic effects”. Also, in the data set with Grape Vines (Tables 5-7: grape vines, wheat and barley), the “damage to plants (comparison in words)” value is recorded as “least damaging to the plants”.
As to `[OH][Sn]([CH]1CCCC1)([CH]1CCCC1)[CH]1CCCC1` [Tricyclopentyltin hydroxide], the Phytotoxicity in the data set with grape (75 ppm) turned out to be 0; in the data set on grape (300 ppm) it was 1; in the data set with wheat [1] it was 0; in the data set with Grape Vines (75 ppm), 1; in the data set with Grape Vines (300 ppm) it was 2.5; with Grape Vines (1200 ppm) it was 4.5. Further, the Phytotoxicity was 0 in the data set on wheat [2] (75 ppm); 1 with wheat [2] (300 ppm); 2.5 in the data set on wheat [2] (1200 ppm); 1 with Barley (38 ppm); 2 (less than 10% of leaf surface injured) in the data set on Barley (150 ppm); 3.5 with Barley (600 ppm).
Regarding `[OH][Sn]([c]1ccccc1)([c]1ccccc1)[c]1ccccc1` [Triphenyltin hydroxide], the “% Control” value in data set [3] (75 ppm) was determined as 95%; in data set [3] (300 ppm), 100%; in data set [4] (75 ppm), 25%; in data set [5], 25%. For the same compound, the “control rating (comparison in words)” value in data set [3] (75 ppm) is “higher control rating at this level”. Besides, the “phytotoxicity (in words)” value with grape (75 ppm) is “too phytotoxic to be commercially useful”. In addition, the Phytotoxicity with grape (75 ppm) came to 1; with grape (300 ppm) it was 1; in the data set with wheat [1], 0; in the data set on Grape Vines (75 ppm), 2.5; with Grape Vines (300 ppm), 3.5; in the data set on Grape Vines (1200 ppm), 5. The Phytotoxicity in the data set with Barley (38 ppm) is recorded as 1; in the data set on Barley (150 ppm), 3 (10-50% of leaf surface injured); with Barley (600 ppm), 4 (50-90% of leaf surface injured).
On to Tricyclopentyltin acetate, for which, in data set [4] (75 ppm), the “% Control” value is listed as 25%. Besides, the Phytotoxicity is listed as 2 (less than 10% of leaf surface injured) in the data set on Grape Vines (75 ppm); 4 (50-90% of leaf surface injured) in the data set with Grape Vines (300 ppm); 5 with Grape Vines (1200 ppm); 1 in the data set on Barley (38 ppm); 2 (less than 10% of leaf surface injured) in the data set on Barley (150 ppm); 3.5 in the data set on Barley (600 ppm).
As to Tricyclopentyltin benzoate, the “% Control” value is 50% in data set [3] (75 ppm) and 75% in data set [3] (300 ppm). The Phytotoxicity in the data set with grape (75 ppm) turned out to be 0; with grape (300 ppm) it was 1.
Turning to Tricyclopentyltin phenoxide, the “% Control” value in data set [4] (75 ppm) was determined as 50%; in data set [4] (300 ppm) it was 83%.
